The values below are quoted from earlier work in patent publication US20250074936A1, “A PROCESS FOR ISOLATION OF SAPONINS UTTROSIDE B AND UTTROSIDE A FROM SOLANUM NIGRUM LINN” (COUNCIL OF SCIENTIFIC AND INDUSTRIAL RESEARCH AN INDIAN …, priority 2022, published 2025).

SMILES strings stand for the structures.

The test system of data set [1] is HeLa cells. The settings on record: read-out: moderate cytotoxicity against HeLa cells, IC50.
Data set [2] concerns PC-12. The conditions noted are these: PC-12 cells; read-out: cytotoxicity towards PC-12, IC50.
Data set [3] relates to HCT-16. The settings on record: HCT-16 cells; read-out: cytotoxicity towards HCT-16, IC50.

As to `CO[C@]1(CC[C@@H](C)COC2OC(CO)C(O)C(O)C2O)OC2C[C@H]3[C@@H]4CC[C@H]5C[C@@H](OC6OC(CO)C(OC7OC(CO)C(O)C(OC8OCC(O)C(O)C8O)C7OC7OC(CO)C(O)C(O)C7O)C(O)C6O)CC[C@]5(C)[C@H]4CC[C@]3(C)C2[C@@H]1C` (stereo partly drawn) [uttroside A], the concentration for half-maximal inhibition (IC50) in data set [1] is 15400 nM.

On to `C[C@H](CC[C@@]1(O)OC2C[C@H]3[C@@H]4CC[C@H]5C[C@@H](OC6OC(CO)C(OC7OC(CO)C(O)C(OC8OCC(O)C(O)C8O)C7OC7OC(CO)C(O)C(O)C7O)C(O)C6O)CC[C@]5(C)[C@H]4CC[C@]3(C)C2[C@@H]1C)COC1OC(CO)C(O)C(O)C1O` (stereo partly drawn) [uttroside B], for which the IC50 in data set [2] was 1200 nM; in data set [3], 2330 nM.

Broadly, the IC50 is the concentration that gives 50% inhibition.
